According to US12544444B2, “Administration of tailored feedstock to increase antibiotic susceptibility” (U.S. Government, as represented by the Sec. of Army, c/o …, priority 2018, dated 2026):

Tested on: Clostridium acetobutylicum
Experiment: antibiotic sensitivity test (OD600 after 24 hours in 96-well plate, anaerobic)
Type: cell-based, Clostridium acetobutylicum strain ATCC 824
Conditions: C. acetobutylicum given oxidized feedstock compared to glucose as feedstock; FIG. 2, after 24 hours
Procedure: Bacterial culture conditions and strains have been previously published. All strains and cultures were maintained or grown in an atmosphere of 5.0% H2, 5.0% CO2, and 90.0% N2. Clostridium acetobutylicum strain ATCC 824 was obtained from ATCC and cultured using company protocol at 37° C. into Clostridial growth medium or CGM containing 0.75 g KH2PO4, 0.75 g K2HPO4, 1.0 g NaCl, 0.017 g MnSO4.5H2O, 0.70 g MgSO4.7H2O, 0.01 g FeSO4.7H2O, 2.0 g 1-asparagine, 5.0 g yeast extract, 2.0 g (NH4)2SO4, and 0.5% final concentration of desired carbohydrate—D-glucose, D-galacturonic acid, D-gluconic acid—at pH 6.5. Active cultures from initial growth stock were added to potato glucose medium to be maintained and stored as a spore solution. Potato glucose medium or PGM contains per liter of H2O—150 g grated fresh potato, 10 g D-glucose, 0.5 g (NH4)SO4, and 3 g CaCO3. The medium was boiled for 1 hour and strained through gauze before sterilization and use for culture. […]
The protocol for antibiotic sensitivity test was performed as follows in anaerobic conditions: 200 μL of CGM medium containing either 0.5% D-galacturonate or D-glucose was aliquoted into a sterile Costar® 96-well polystyrene flat bottom plate in triplicate per test condition. […] The optical density of the cultures in the wells were measured at 600 nm via a commercially available plate reader.

Compound: Cc1ncc([N+](=O)[O-])n1CCO [metronidazole]
- antibiotic (metronidazole) susceptibility increase: at least two-fold
